Laboratory results as given in patent publication US4617269A, “Process for the preparation of fructosyl disaccharides” (priority 1983, dated 1986).
Like-named read-outs stand apart in the source and are kept apart here.

Columns and labels:
[1] = Sweetness relative to sucrose
[2] = tested on: Dedonder's levan sucrase from B.subtilis BS5 (a clone from B.subtilis var. nigra); conditions: cited from earlier work

OC[C@H]1O[C@H](O[C@]2(CO)O[C@H](CO)[C@@H](O)[C@@H]2O)[C@H](O)[C@@H](O)[C@H]1O [Galactosucrose, β-D-fructofuranosyl (2→1)-D-galactopyranoside]
sweetness ([1]; only a trace of sweetness): 10-15 % of sucrose

O[C@@H]1[C@@H](O)[C@@H](O[C@]2(CCl)O[C@H](CCl)[C@@H](O)[C@@H]2O)OC[C@@H]1Cl [Example 8]
sweetness, times as sweet as sucrose ([1]; in a 2% solution): 25 times as sweet as sucrose

OC[C@H]1O[C@@](CO)(O[C@H]2O[C@H](CO)[C@@H](O)[C@H](O)[C@H]2O)[C@@H](O)[C@@H]1O [sucrose, β-D-fructofuranosyl α-D-glucopyranoside]
Km ([2]; Dedonder (loc.cit.) BS5 strain enzyme, read-out: Km (sucrose), quoted): ~20 mM
Km ([2]; reported for Dedonder's levan sucrase, read-out: Km for sucrose): 20 mM

C[C@H]1O[C@H](O[C@]2(CCl)O[C@H](CCl)[C@@H](O)[C@@H]2O)[C@H](O)[C@@H](O)[C@H]1Cl [4,1',6'-trichloro-4,6,1',6'-tetradeoxygalactosucrose]
sweetness, times as sweet as sucrose ([1]; 8% solution): 400 times as sweet as sucrose
